Source: patent publication US11617796B2, “Conjugate of minoxidil and peptide” (CAREGEN CO., LTD., priority 2016, dated 2023)
Where no end group is shown, it is not given here.

What was measured:
β-catenin = assay: Translocation of β-catenin to nucleus in hair follicle dermal papilla cells (Western blotting); format: cell-based; settings: 5 and 50 uM, 24 hours, same concentration; FIG. 10
Method: Hair follicle dermal papilla cells were placed in each well of a 6-well plate at 1×10^3 cells/well. Incubation was performed in a CO2 incubator for 24 hours. […] Protein was extracted using a protein extraction kit (extraction of each of the nuclear/cytoplasmic protein). Western blotting was carried out in the same manner as in Example 3-2 except that an anti-beta-catenin antibody, an anti-HDAC antibody, an anti-alpha tubulin antibody as primary antibodies were used.

phospho-Smad1/5/8 = assay: Translocation of phospho-Smad1/5/8 to nucleus in the presence of BMP2 (Western blotting); format: cell-based; settings: in the presence of BMP2, 5 and 50 uM, compared with Minoxidil; FIGS. 12 and 13
Method: Hair follicle dermal papilla cells were placed in each well of a 6-well plate at 1×10^3 cells/well. Incubation was performed in a CO2 incubator for 24 hours. After replacing the medium with serum-free DMEM medium, the Minoxidil, the Minoxidil-WINT, and the WINT were added respectively to the cells at a concentration of 5 uM and 50 uM, and then incubated for 24 hours. Protein was extracted using a protein extraction kit (extraction of each of the nuclear/cytoplasmic protein). Western blotting was carried out in the same manner as in Example 3-2 except that an anti-beta-catenin antibody, an anti-HDAC antibody, an anti-alpha tubulin antibody as primary antibodies were used.
The experiment was carried out in the same manner as in Example 5, except that in the presence of BMP2, the Minoxidil-Nokkin is used instead of the Minoxidil-WINT, and an anti-P-Smad1/5/8 antibody and an anti-HDAC1 antibody were used as primary antibodies.

TGFβ1 = TGFβ1 mRNA amount by RT-PCR in hair follicle dermal papilla cells; format: cell-based, human; settings: 5 and 50 uM, 24 hours, compared with Minoxidil, FIGS. 4 to 6
Method: (§1) VEGF was expressed by HUVECs and TGFβ1 was expressed by hair follicle dermal papilla cells. Two cells were placed in each 6-well plate at a rate of 1×10^3 cells/well. After 24 hours of incubation in a CO2 incubator, the medium was replaced with serum-free DMEM medium. Three compounds of the present invention and Minoxidil were added to the cells at 5 uM and 50 uM concentration, respectively, and incubated for 24 hours. After incubated cells were harvested, RNA was extracted using an RNA extraction kit and RT-PCR was performed to confirm the degree of expression of VEGF and TGFβ1.

VEGF = VEGF mRNA amount by RT-PCR in HUVECs; format: cell-based, human; settings: 5 and 50 uM, 24 hours, compared with Minoxidil, FIGS. 4 to 6
Method: as §1

Molecule | degree of translocation of β-catenin to the nucleus (β-catenin) | delivery of P-Smad1/5/8 into the nucleus (phospho-Smad1/5/8) | expression of TGFβ1 (mRNA) (TGFβ1) | expression of VEGF (mRNA) (VEGF)
Nc1cc(N2CCCCC2)nc(N)[n+]1[O-] [Minoxidil] | significantly lower degree of translocation of β-catenin to the nucleus |  |  | 
Minoxidil-Nokkin: Minoxidil chemically conjugated to Nokkin peptide of SEQ ID NO: 1 (ELIEHGGGRPAD) (also: minoxidil conjugate, attachment site not given here) |  | reduced as compared to the treatment with the Minoxidil | significantly lower than that of the Minoxidil | significantly higher than that of Minoxidil
